Laboratory results taken from patent US10813931B2, “Methods and compositions relating to the treatment of cancer” (THE BRIGHAM AND WOMEN'S HOSPITAL, INC., priority 2013, dated 2020).

How the values were obtained:
[1] = test system: 231 DTC and 468DTC; test: Cell viability of DTC subsets with dasatinib, PI103, combination or DPNP; assay type: cell-based, human; settings: combination of PI103 and dasatinib (1:1), 48 h
Method: (§1) Parent cells DTC or Parent^Phenocopy were generated as described and plated at a concentration of 1.5×10^5 in a clear bottom 96-well plate. Cells were exposed to indicated treatments ([…]) for 48 hours in serum containing medium. Following incubation, cells were washed 1 time with PBS and recovered in serum and phenol red-free RPMI or DMEM and subsequently treated with MTS following manufacturer protocol (Promega, Madison, Wis.). Drug sensitivity index (SI) was determined as follows: Cell viability was determined as % of control for treatment conditions of 10 nM, 100 nM 1000 nM and 10 μM to generate an average cell viability across these 4 drug concentrations. SI was calculated as a ratio of parent:DTC or parent:parent^phenocopy. SI=1 correlates to parental sensitivity, SI<1 correlates to resistance compared to parent cell line and SI>1 correlates to enhanced sensitivity to the indicated drug compared to the parent cell line at the same concentration average.

[2] = test system: 231 parent and DTC; test: Cell viability (MTS) and drug sensitivity index, 231 parent vs DTC vs 231Phenocopy; assay type: cell-based, human; settings: for cell viability of DTC, SFK and BCR-Abl inhibition separately and in combination: 231 DTC, PP2 and imatinib in combination
Method: (§2) Following viability analyses conducted as described in supplemental data, drug sensitivity index (SI) was determined as follows: Cell viability was determined as % of control for treatment conditions of 10 nM, 100 nM 1000 nM and 10 μM to generate an average cell viability across these 4 drug concentrations. SI was calculated as a ratio of parent:DTC or parent:parent^phenocopy. SI=1 correlates to parental sensitivity, SI<1 correlates to resistance compared to parent cell line and SI>1 correlates to enhanced sensitivity to the indicated drug compared to the parent cell line at the same concentration average.
as §1, with “Cells” for “Parent cells DTC or Parent^Phenocopy were generated as described and plated at a concentration of 1.5×10^5 in a clear bottom 96-well plate. Cells”

[3] = test system: 468 parent cells and a subset of DTC; test: Survival curves of 468 parent cells and DTC exposed to chemotherapy; assay type: cell-based, human; settings: 48 h exposure
Method: MDA-MB-231, MDA-MB-468 were purchased from ATCC. For acute treatments, cells were plated at a density of 0.5-1×10^5 cells/ml and allowed to adhere for 24-48 hr. when cells reached ˜70% confluency they were treated with antitubulins at indicated concentrations for 4-24 hours and utilized for subsequent assays. To generate chemotherapy tolerant subset, cells were treated with indicated concentrations of chemotherapy (48). Following washes with PBS, adherent cells were trypsinized and re-plated at a density of 1.5-2×10^5 cells/ml and cultured in serum-containing medium. After 24 hours incubation, floating cells were removed and remaining cells were washed with 1×PBS and considered a subpopulation of chemotherapy-tolerant cells. A separate plate of control cells were maintained concurrently in serum containing medium and provided fresh media at every interval where DTC received fresh media. […]
Parent cells DTC or Parent^Phenocopy were generated as described and plated at a concentration of 1.5×10^5 in a clear bottom 96-well plate. […] Drug sensitivity index (SI) was determined as follows: Cell viability was determined as % of control for treatment conditions of 10 nM, 100 nM 1000 nM and 10 μM to generate an average cell viability across these 4 drug concentrations. SI was calculated as a ratio of parent:DTC or parent:parent^phenocopy. […]

[4] = test system: 4T-1 mouse mammary carcinoma; test: 4T-1 tumor growth in Balb/C mice; assay type: in vivo
Method: 4-6 week old Balb/C mice (Charles River, Cambridge Mass.) were inoculated with 10^6 4 T-1 mouse mammary carcinoma cells in the left flank (Charles River, Cambridge Mass.). Mice identified with tumors were treated with docetaxel (DTX) or vehicle twice at 72 hour intervals at 10 mg/kg i.v. or 15 mg/kg i.p. and subsequently treated with dasatinib i.p. or nanoparticles i.v. 72 hours following the final DTX dose. Tumors were harvested at indicated time points and evaluated for protein phosphorylation and expression. Experimental detail provided in supplemental data.
1 million 4T-1 mouse mammary carcinoma cells suspended in 100 µL PBS were injected per left flank of 5-6 week old Balb/C (Charles River, Wilmington Mass.). DTX was dissolved in pure Ethanol at a concentration of 50 mg/ml mixed 1:1 with Polysorbate 80 (Tween 80) and brought to a final working concentration with 5% glucose in PBS. Once Tumors became palpable (˜100 mm^3), DTX or vehicle treatments were administered at 100 μL volumes. Dasatinib was dissolved in DMSO to working concentration and delivered as 50 μL injections on indicated days, 50 µL DMSO used as a control in these studies. Tumor volumes were measured by a third party unaware of treatment conditions using digital calipers (Starlett, Athol, Mass.), volumes were assessed by the following formula: (Width×Width×length)/2 and expressed as relative volume increase from day 1. Tumor homogenate was prepared by homogenization of equal weight tissue sections incubated in 3×RIPA buffer containing 2× protease/phosphatase inhibitor cocktail (Thermo Fisher, Waltham, Mass.).

[5] = test system: explant from stage IV, metastatic breast cancer patient; test: Refractory stage IV metastatic breast cancer explant, caspase activation; set-up: species or system human; settings: combination of dasatinib with DTX, 48 h
Method: Fresh tumor tissues were collected from breast cancer patients immediately after surgical resection at HCG cancer hospital, Bangalore, India. The tumor samples were transported to the laboratory at 4° C., in appropriate transport buffer within 60 minutes post-resection, for ex-vivo studies and molecular and pathological evaluation. Tissues were cut into thin sections and cultured in 96 well plate using optimized conditions (Radhakrishnan et al., 2013). Tumors were treated with a taxane-containing regimen (Docetaxel+Doxorubicin+Cyclophosphamide) or other drugs as indicated. DMSO was used as a vehicle control. After 48 hrs of treatment, tumor cell viability was measured and release of soluble cleaved caspase-3 and caspase-8 were determined.
Human Tumor tissues were fixed in Phos stop (Roche) containing 4% buffered formalin and embedded in paraffin. Prior to immunohistochemical staining of target proteins 4-μm-thick tissue sections mounted in poly L lysine coated glass slides were deparaffinized and rehydrated. Heat induced antigen retrieval was achieved using citrate buffer (pH7.8). […] Immunoreactivity was scored by intensity of staining (0, no staining, 1 weak; 2 moderate; 3 strong) and percentage of positive cells. By multiplying both values, a final score was calculated. […]

[6] = test system: TNBC; settings: 2011, cited from earlier work
[7] = test system: DTC subsets derived from multiple cancer types; test: Drug sensitivity index of dasatinib in DTC isolated from multiple cell lines; assay type: cell-based; settings: DTC from multiple cell lines vs parent, 48 h
Method: as §2
as §1, with “SI=1 correlates to parental sensitivity, SI<1 correlates to resistance compared to parent cell line and SI>1 correlates to enhanced sensitivity to the indicated drug compared to the parent cell line at the same concentration average.” left out

[8] = test system: AKT signaling; test: Western blot of phosphorylated and total Akt in 231 DTC; assay type: cell-based, human; settings: increasing doses, 4 h
Method: Laemli sample buffer was prepared as a 5× solution containing β-mercaptoethanol as a reducing agent. Immunoprecipitaion was performed using both classic and direct IP kits purchased from Pierce following manufacturer protocols (Thermo Fisher inc. Rockford, Ill.). Briefly, cell lysates were prepared using IP/Lysis Buffer (Thermo Fisher inc. Rockford, Ill.) in the presence of 2×HALT protease/phosphatase inhibitor cocktail (Thermo Fisher inc. Rockford, Ill.). For classic Immunoprecipitation, lysates were combined with indicated antibodies for 48 hours at 4 C and combined with protein A/G agarose beads for 4 hours prior to elution with 2× Laemli Buffer at 100 C. Direct immunoprecipitation was performed following manufacturer protocol. Briefly, antibodies were covalently attached to agarose beads, lysate was combined with antibody-agarose bead conjugates for 24 hours prior to washes and elution with provided Elution Buffer. Protein samples were resolved by SDS-PAGE and transferred to PVDF membranes prior to incubation at 4 C with indicated primary antibodies. […] Optical densities of western blots were measured using ImageJ™ open source software (National Institutes of Health) and validated using Adobe CS5™.

[9] = test system: MDA-MB-231 (231); test: CD44 surface expression by FACS in 231 cells; assay type: cell-based, human; settings: 231 cells surviving 500 nM doxorubicin
Method: MDA-MB-231, MDA-MB-468 were purchased from ATCC. For acute treatments, cells were plated at a density of 0.5-1×10^5 cells/ml and allowed to adhere for 24-48 hr. when cells reached ˜70% confluency they were treated with antitubulins at indicated concentrations for 4-24 hours and utilized for subsequent assays. To generate chemotherapy tolerant subset, cells were treated with indicated concentrations of chemotherapy (48). Following washes with PBS, adherent cells were trypsinized and re-plated at a density of 1.5-2×10^5 cells/ml and cultured in serum-containing medium. […]
Cells were cultured as indicated and fixed with 4% paraformaldehyde in PBS for 30 min at RT and blocked in 10% goat serum (v/v). Following PBS washes, cells were incubated with indicated antibodies for 60 minutes at room temperature or overnight at 4 C and analyzed by FACS (Accuri cyomteters Inc. Ann Arbor, Mich.). Cell cycle analyzed in propidium iodide solution following incubation in 70% Ethanol overnight at 4 C and following manufacturer protocol (Genscript USA Inc. Piscataway, N.J.). AnnexinV/PI was analyzed FACS following manufacturer protocol (BD, Ann Arbor Mich.). All FACS results were analyzed by FlowJo™ software following a rigorous doublet discrimination based on FSC:A vs. width as well as FSC:A vs. height (Tree Star Inc., Ashland Oreg.). […]

[10] = test system: AKT and ezrin signaling; test: Western blot of AKT, ezrin and ERM signaling in 468 cells treated with DTX +/- erlotinib; assay type: cell-based, human; settings: 10 nM DTX +/- erlotinib, 24 h
Method: MDA-MB-231 (ATCC) were cultured in DMEM containing 10% Fetal Bovine Serum (FBS), MDA-MB-468 MDA-MB-435 and 4T-1 mammary carcinoma cells (ATCC) were cultured in RPMI containing 10% FBS (Invitrogen, Carlsbad Calif.) at 37 C and 5% CO2. During treatments with chemotherapeutics, cells were grown to semi-confluence and treated with indicated concentrations of chemotherapy in serum-containing medium for indicated time points. When small molecule inhibitors were included in treatments, they were added simultaneously with chemotherapy. For siRNA gene knockdown, cells were plated at a concentration of 5×10^4 cells/ml. Pre-validated Silencer Select siRNA targeting pan-CD44 (5′[…]tt3′) (SEQ ID NO: 38) or Ezrin (5′[…]tt3′) (SEQ ID NO: 39) were purchased from Ambion (Invitrogen, Grand Island, N.Y.). siRNA plasmids were transfected using lipofectamine 2000 (Invitrogen, Carlsbad Calif.) following manufacturer protocol and cultured for 72 hours prior to treatment. Scrambled siRNA was used as a control.
Laemli sample buffer was prepared as a 5× solution containing β-mercaptoethanol as a reducing agent. […] Optical densities of western blots were measured using ImageJ™ open source software (National Institutes of Health) and validated using Adobe CS5™.

In the case of `Oc1cccc(-c2nc(N3CCOCC3)c3oc4ncccc4c3n2)c1` [PI103], the “cell death in the DTC subset, combination” value [1] is reported as “synergistic induction of cell death”.
In the case of `CC(C)(C)n1nc(-c2ccc(Cl)cc2)c2c(N)ncnc21` [PP2], the “cell viability of DTC, SFK and BCR-Abl inhibition separately and in combination” value [2] is reported as “dual inhibition does not further augment the sensitivity of the DTC population”.
With `CO[C@H]1C(=O)[C@]2(C)[C@@H](OC)C[C@H]3OC[C@@]3(OC(C)=O)[C@H]2[C@H](OC(=O)c2ccccc2)[C@]2(O)C[C@H](OC(=O)[C@H](O)[C@@H](NC(=O)OC(C)(C)C)c3ccccc3)C(C)=C1C2(C)C` [cabazitaxel] the “susceptibility of DTC to chemotherapy vs parent cell” value [3] was “insensitive”.
With `Cc1nc(Nc2ncc(C(=O)Nc3c(C)cccc3Cl)s2)cc(N2CCN(CCO)CC2)n1` [dasatinib] the “sensitivity (SI) of 231Phenocopy” value ([2]; 231Phenocopy vs 231 parent) was “regained parental sensitivity”, the “Sensitivity index (SI)” value ([2]; DTC vs parental cell line, 48 h, average viability across 10 nM, 100 nM, 1000 nM and 10 μM) was greater than 1 and the “tumor growth rate (specific growth rate)” value ([4]; 'Early Dasatinib', given 72 hours following DTX) was “significantly augmented the reversal of tumor growth rate”. The “tumor growth rate (specific growth rate)” value ([4]; 'Late Dasatinib', 216 hours following DTX) was “ineffective”, the relative tumor volume ([4]; early treatment group after DTX) was “tumor regression could be achieved” and the relative tumor volume ([4]; late treatment after DTX vs matched vehicle control) was “no difference over a matched vehicle control”. The “apoptosis, cleaved caspase 3 (IHC)” value [5] was “could re-sensitize the refractory cancer tissue to chemotherapy”, the “caspase 8 levels” value [5] was “no change” and the “cell death in the DTC subset, combination” value [1] was “synergistic induction of cell death”. The “clinical efficacy as single-agent in TNBC” value ([6]; Finn et al.) was “failed as a single-agent”, the “toxicity in clinical trials” value ([6]; Herold et al.) was “significant toxic burden” and the “dasatinib sensitivity-index in additional DTC subsets” value [7] was “consistent in additional DTC subsets derived from multiple cancer types”. The “AKT signaling (phosphorylated Akt, western blot)” value [8] was “reduced, to a minor degree, AKT signaling”.
For `COc1cccc2c1C(=O)c1c(O)c3c(c(O)c1C2=O)C[C@@](O)(C(=O)CO)C[C@@H]3O[C@H]1C[C@H](N)[C@H](O)[C@H](C)O1` [doxorubicin], the “CD44 expression of doxorubicin tolerant cells (Dox-TC)” value [9] was “robust expression of CD44” and the “susceptibility of DTC to chemotherapy vs parent cell” value [3] was “acquired resistance”.
With `C#Cc1cccc(Nc2ncnc3cc(OCCOC)c(OCCOC)cc23)c1` [erlotinib] the ERM-complex signaling [10] was “remained intact” and the “induction of AKT and ezrin signaling in response to chemotherapy” value [10] was “prevented induction of AKT and ezrin signaling”.
With `Cc1ccc(NC(=O)c2ccc(CN3CCN(C)CC3)cc2)cc1Nc1nccc(-c2cccnc2)n1` [imatinib] the “cell viability of DTC, SFK and BCR-Abl inhibition separately and in combination” value [2] was “dual inhibition does not further augment the sensitivity of the DTC population”.
